Molecular target: T1, ΔF508-CFTR (Homo sapiens, UniProt P13569, DEL508-508)
T1 construct: expressed in transfected cells
Experiment: Membrane potential optical (FRET/VIPR) assay, identification of potentiator compounds
Format: cell-based
Settings: Table 3, assay not given; for % Activity: relative efficacy
Procedure, shortened: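 Double-addition potentiator screen: compound delivered in gluconate-substituted Cl^--free medium, membrane potential followed via CC2-DMPE/DiSBAC2(3) FRET on VIPR. Cells were ΔF508-CFTR-expressing NIH3T3 mouse fibroblasts, held 2 h at 37° C. then 24 h at 27° C. before assay.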

T1 sequence (P13569 with tags, fused parts or gaps DEL508-508): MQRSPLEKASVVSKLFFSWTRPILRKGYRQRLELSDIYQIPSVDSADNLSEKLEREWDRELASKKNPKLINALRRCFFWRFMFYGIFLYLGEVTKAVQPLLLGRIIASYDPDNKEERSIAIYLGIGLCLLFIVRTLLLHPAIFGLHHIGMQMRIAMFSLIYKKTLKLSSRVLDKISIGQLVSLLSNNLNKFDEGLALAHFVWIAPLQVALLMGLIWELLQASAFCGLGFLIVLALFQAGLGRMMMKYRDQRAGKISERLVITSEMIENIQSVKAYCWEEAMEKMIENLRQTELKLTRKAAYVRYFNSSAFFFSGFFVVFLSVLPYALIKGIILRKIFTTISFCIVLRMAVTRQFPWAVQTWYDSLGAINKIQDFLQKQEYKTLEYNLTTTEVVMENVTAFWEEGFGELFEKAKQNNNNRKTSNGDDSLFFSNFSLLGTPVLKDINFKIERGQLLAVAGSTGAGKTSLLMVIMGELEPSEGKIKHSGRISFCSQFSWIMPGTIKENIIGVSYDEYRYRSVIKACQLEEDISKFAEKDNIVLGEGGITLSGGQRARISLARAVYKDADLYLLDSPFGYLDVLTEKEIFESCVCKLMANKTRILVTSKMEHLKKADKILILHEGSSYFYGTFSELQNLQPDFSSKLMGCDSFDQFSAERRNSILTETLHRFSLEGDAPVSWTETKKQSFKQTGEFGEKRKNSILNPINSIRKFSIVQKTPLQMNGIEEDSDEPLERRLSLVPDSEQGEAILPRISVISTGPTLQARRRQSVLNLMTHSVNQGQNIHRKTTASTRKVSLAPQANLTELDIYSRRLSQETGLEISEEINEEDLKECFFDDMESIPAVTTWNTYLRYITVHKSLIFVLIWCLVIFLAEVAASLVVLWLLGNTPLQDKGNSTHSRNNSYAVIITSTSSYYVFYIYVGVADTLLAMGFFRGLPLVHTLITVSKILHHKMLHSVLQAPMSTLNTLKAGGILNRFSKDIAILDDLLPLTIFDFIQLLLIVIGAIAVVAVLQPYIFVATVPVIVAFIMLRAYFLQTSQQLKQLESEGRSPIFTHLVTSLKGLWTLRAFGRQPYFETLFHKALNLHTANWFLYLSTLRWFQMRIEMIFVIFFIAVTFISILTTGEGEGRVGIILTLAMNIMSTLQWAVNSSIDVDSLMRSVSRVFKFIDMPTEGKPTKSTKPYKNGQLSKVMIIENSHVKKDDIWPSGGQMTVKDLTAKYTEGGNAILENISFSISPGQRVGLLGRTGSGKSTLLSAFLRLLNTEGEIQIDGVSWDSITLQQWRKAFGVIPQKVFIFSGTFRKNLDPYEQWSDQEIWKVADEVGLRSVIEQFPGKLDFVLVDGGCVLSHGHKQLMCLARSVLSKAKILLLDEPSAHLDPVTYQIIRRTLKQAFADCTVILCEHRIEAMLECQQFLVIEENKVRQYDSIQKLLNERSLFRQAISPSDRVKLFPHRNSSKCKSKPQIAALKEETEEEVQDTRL

% Activity	EC50	Compound
++ (between 25% to 100%)	–	C[C@@H]1CCCN1c1ccc(NC(=O)c2c[nH]c3ccccc3c2=O)c(C(F)(F)F)c1 [Compound 572, (R)-N-(4-(2-methylpyrrolidin-1-yl)-2-(trifluoromethyl)phenyl)-4-oxo-1,4-dihydroquinoline-3-carboxamide]
+ (<25%)	10 to 25 µM	N#Cc1cc(Cl)cc(Cl)c1NC(=O)c1c[nH]c2ccccc2c1=O [Compound 369, N-(2,4-dichloro-6-cyano-phenyl)-4-oxo-1H-quinoline-3-carboxamide]
++ (between 25% to 100%)	< 10 µM	CSc1ccc(-c2ccccc2NC(=O)c2c[nH]c3ccccc3c2=O)cc1 [Compound 223, N-[2-(4-methylsulfanylphenyl)phenyl]-4-oxo-1H-quinoline-3-carboxamide]
++ (between 25% to 100%)	< 10 µM	CCOC(=O)C(C)(C)c1ccc(NC(=O)c2c[nH]c3ccccc3c2=O)cc1 [Compound 420, 2-methyl-2-[4-[(4-oxo-1H-quinolin-3-yl)carbonylamino]phenyl]-propanoic acid ethyl ester]
++ (between 25% to 100%)	–	CCOc1ccccc1-c1ccccc1NC(=O)c1c[nH]c2ccccc2c1=O [Compound 344, N-[2-(2-ethoxyphenyl)phenyl]-4-oxo-1H-quinoline-3-carboxamide]
++ (between 25% to 100%)	< 10 µM	Cc1csc(-c2ccccc2NC(=O)c2c[nH]c3ccccc3c2=O)c1 [Compound 151, N-[2-(4-methyl-2-thienyl)phenyl]-4-oxo-1H-quinoline-3-carboxamide]
++ (between 25% to 100%)	10 to 25 µM	Nc1cccc(NC(=O)c2c[nH]c3ccccc3c2=O)c1 [Compound 431, N-(3-aminophenyl)-4-oxo-1H-quinoline-3-carboxamide]
+++ (>100%)	< 10 µM	CC(C)(C)c1cc(C(C)(C)C)c(NC(=O)c2c[nH]c3cccc(N)c3c2=O)cc1O [Compound 585, 5-amino-N-(5-hydroxy-2,4-ditert-butyl-phenyl)-4-oxo-1H-quinoline-3-carboxamide]
+ (<25%)	25 to 60 µM	O=C(Nc1ccc2[nH]c(=O)[nH]c2c1)c1c[nH]c2ccccc2c1=O [Compound 64, 4-oxo-N-(2-oxo-1,3-dihydrobenzoimidazol-5-yl)-1H-quinoline-3-carboxamide]
++ (between 25% to 100%)	< 10 µM	CN(C)c1ccc2[nH]cc(C(=O)Nc3cc(O)c(C(C)(C)C)cc3C(C)(C)C)c(=O)c2c1 [Compound 544, 6-dimethylamino-N-(5-hydroxy-2,4-ditert-butyl-phenyl)-4-oxo-1H-quinoline-3-carboxamide]
++ (between 25% to 100%)	–	O=C(Nc1ccccc1-c1cc(F)cc(F)c1)c1c[nH]c2ccccc2c1=O [Compound 138, N-[2-(3,5-difluorophenyl)phenyl]-4-oxo-1H-quinoline-3-carboxamide]
++ (between 25% to 100%)	< 10 µM	COC(=O)[C@@H]1CCCCN1c1ccc(NC(=O)c2c[nH]c3ccccc3c2=O)c(C(F)(F)F)c1 [Compound 715, (S)-methyl 1-(4-(4-oxo-1,4-dihydroquinoline-3-carboxamido)-3-(trifluoromethyl)phenyl)piperidine-2-carboxylate]
++ (between 25% to 100%)	–	O=C(Nc1ccccc1-c1ccncc1)c1c[nH]c2ccccc2c1=O [Compound 70, 4-oxo-N-[2-(4-pyridyl)phenyl]-1H-quinoline-3-carboxamide]
++ (between 25% to 100%)	< 10 µM	Cc1cccc2[nH]cc(C(=O)Nc3cc(O)c(C4(C)CCCCC4)cc3F)c(=O)c12 [Compound 498, N-[2-fluoro-5-hydroxy-4-(1-methylcyclohexyl)-phenyl]-5-methyl-4-oxo-1H-quinoline-3-carboxamide]
++ (between 25% to 100%)	10 to 25 µM	Cc1ccc(S(=O)(=O)Nc2ccccc2NC(=O)c2c[nH]c3ccccc3c2=O)cc1 [Compound 398, 4-oxo-N-[2-(p-tolylsulfonylamino)phenyl]-1H-quinoline-3-carboxamide]
++ (between 25% to 100%)	< 10 µM	Cc1ccc(C(F)(F)F)cc1NC(=O)c1c[nH]c2cccc(O)c2c1=O [Compound 676, 5-hydroxy-N-[2-methyl-5-(trifluoromethyl)phenyl]-4-oxo-1H-quinoline-3-carboxamide]
++ (between 25% to 100%)	< 10 µM	CN(Cc1ccccc1NC(=O)c1c[nH]c2ccccc2c1=O)C1CCCCC1 [Compound 354, N-[2-[(cyclohexyl-methyl-amino)methyl]phenyl]-4-oxo-1H-quinoline-3-carboxamide]
++ (between 25% to 100%)	< 10 µM	Cc1cccc2[nH]cc(C(=O)Nc3ccc(N4C[C@@H]5CC[C@H]4C5)cc3C(F)(F)F)c(=O)c12 [Compound 582, N-(4-((1S,4R)-2-azabicyclo[2.2.1]heptan-2-yl)-2-(trifluoromethyl)phenyl)-5-methyl-4-oxo-1,4-dihydroquinoline-3-carboxamide]
++ (between 25% to 100%)	< 10 µM	CC(C)c1ccc(NC(=O)c2c[nH]c3ccccc3c2=O)cn1 [Compound 235, N-(6-isopropyl-3-pyridyl)-4-oxo-1H-quinoline-3-carboxamide]
++ (between 25% to 100%)	< 10 µM	O=C(Nc1ccc(N2CCCC2)cc1C(F)(F)F)c1c[nH]c2ccc(F)cc2c1=O [Compound 562, 6-fluoro-4-oxo-N-[4-pyrrolidin-1-yl-2-(trifluoromethyl)phenyl]-1H-quinoline-3-carboxamide]
++ (between 25% to 100%)	< 10 µM	Cc1cccc(Oc2ncccc2NC(=O)c2c[nH]c3ccccc3c2=O)c1C [Compound 206, N-[2-(2,3-dimethylphenoxy)-3-pyridyl]-4-oxo-1H-quinoline-3-carboxamide]
++ (between 25% to 100%)	< 10 µM	COC(=O)[C@@H]1[C@@H](C)CCN1c1ccc(NC(=O)c2c[nH]c3ccccc3c2=O)c(C(F)(F)F)c1 [Compound 530, (2S,3S)-methyl 3-methyl-1-(4-(4-oxo-1,4-dihydroquinoline-3-carboxamido)-3-(trifluoromethyl)phenyl)pyrrolidine-2-carboxylate]
++ (between 25% to 100%)	< 10 µM	COC(=O)c1cc(NC(=O)c2c[nH]c3ccccc3c2=O)ccc1C(C)(C)C [Compound 444, 5-[(4-oxo-1H-quinolin-3-yl)carbonylamino]-2-tert-butyl-benzoic acid methyl ester]
++ (between 25% to 100%)	< 10 µM	O=C(Nc1cc(O)cc(C(F)(F)F)c1)c1c[nH]c2ccc(F)cc2c1=O [Compound 574, 6-fluoro-N-[3-hydroxy-5-(trifluoromethyl)phenyl]-4-oxo-1H-quinoline-3-carboxamide]

— patent US8614327B2 (Vertex Pharmaceuticals Incorporated, priority 2004, dated 2013)
